Values of other authors as cited in US8048906B2, “Optically pure and enriched isomers of chelating ligands and contrast agents” (Catalyst Medical, priority 2003, dated 2011).

Conditions: binds to HA; peptide isolated from a random 12-mer phage peptide library (Mummert et al., J. Exp. Med. 2000)

## GAHWQFNALTVR
  Kd: ~1000 nM
